# From US20120149766A1, “DIETARY AND PHARMACEUTICAL COMPOSITIONS COMPRISING A SAGE EXTRACT CONTAINING A MIXTURE OF TRICYCLIC […] THEIR DERIVATIVES AND THEIR USES” (DSM IP ASSETS B.V., priority 2006, published 2012)
# Read-outs that look alike come from different tables or passages of the source.
# Assays:
# [1] = tested on: mouse; conditions: for Number of marbles covered by sawdust, mean ± s.e.m.: 30-min test
# Protocol: Mice (n=15 per treatment group) were individually placed in transparent plastic cages (33×21×18 cm) with 5 cm of sawdust on the floor and 25 marbles (diameter 1 cm) grouped in the centre of the cage. A second, up-turned, cage served as a lid. The number of marbles covered by sawdust (by at least two-thirds) was counted at the end of the 30-min test period. Tests were performed by investigators blind to the drug treatment protocol.
# Prior to testing, all test cages and marbles were “impregnated” by leaving 10 naive mice in each cage for 15 minutes.
# Sage extract B (30, 100, 300 mg/kg, p.o., 24, 5 and 1 h prior to the test) was thus investigated in the marble burying test to evaluate its potential anxiolytic effects in the mouse. Clobazam, fluoxetine and venlafaxine were used as reference compounds.
# [2] = tested on: mouse; experiment: Light-dark box test in the mouse; type: in vivo
# Text: The method, which detects anxiolytic activity, follows that described by Crawley (1981, Pharmacol. Biochem. Behav., 15:695-699). Anxiolytics increase the time spent in the light compartment.
# Animals were placed in the light compartment of a two-compartment box with one half light and open (25×27×27 cm) and the other half dark and closed (20×27×27 cm). The time spent in each compartment as well as the number of times the animal crossed from one side to the other was scored during a 3-min test. 15 mice were studied per group. The test was performed blind.
# Clobazam (32 mg/kg p.o., dispersed in 0.2% w/v hydroxypropylmethyl cellulose in distilled water), administered 1 h before the test, was used as reference substance. Mice in this group received additional administrations of vehicle at 24 h and 5 h before the test in order to maintain experimental blinding.
# [3] = 24 mg/kg p.o. −24 h, −5 h and −1 h
# [4] = 32 mg/kg p.o. −1 h (vehicle at −24 h and −5 h)
# [5] = 32 mg/kg p.o. −1 h (vehicle at −24 h, −5 h)
# [6] = 32 mg/kg p.o. −1 h (vehicle at −24 h, −5 h), 3-min test
# [7] = 10 mg/kg p.o. −24 h, −5 h and −1 h
smiles,measurement,setting,value
"COc1ccc(C(CN(C)C)C2(O)CCCCC2)cc1 (stereo not shown) [Venlafaxine, venlafaxine]","Number of marbles covered by sawdust, % change from control",[1]; [3],−47%
same,"Number of marbles covered by sawdust, mean ± s.e.m.",[1]; [3],9.5 ± 1.8
same,Dead after the first administration (animals/group),"[1]; 24 mg/kg p.o., mouse",#dead after the first administration ( 1/15) and after the second administration ( 1/15).
same,Dead after the second administration (animals/group),"[1]; 24 mg/kg p.o., mouse",#dead after the first administration ( 1/15) and after the second administration ( 1/15).
"CN1C(=O)CC(=O)N(c2ccccc2)c2cc(Cl)ccc21 [Clobazam, clobazam]","Number of marbles covered by sawdust, % change from control",[1]; [4],−84%
same,"Number of marbles covered by sawdust, mean ± s.e.m.",[1]; [4],2.9 ± 1.2
same,"Number of crossings, % change from control",[2]; [5],+6%
same,"Time spent in light compartment, % change from control",[2]; [5],+75%
same,"Number of crossings, mean ± s.e.m.",[2]; [6],11.9 ± 1.8 NS
same,"Time spent in light compartment, mean ± s.e.m.",[2]; [6],125.5 ± 6.4 s
same,Sedation (animals/group),"[2]; 32 mg/kg p.o., mouse",2/15
"CNCCC(Oc1ccc(C(F)(F)F)cc1)c1ccccc1 (stereo not shown) [Fluoxetine, fluoxetine]","Number of marbles covered by sawdust, % change from control",[1]; [7],−58%
same,"Number of marbles covered by sawdust, mean ± s.e.m.",[1]; [7],7.6 ± 1.6
